Laboratory results as given in patent publication US20180036292A1, “PHARMACEUTICAL COMPOSITIONS FOR THE TREATMENT OF BACTERIAL INFECTIONS” (WOCKHARDT LIMITED, priority 2016, published 2018).
Like-named read-outs stand apart in the source and are kept apart here.

Key:
[1] = Study 3: concentrations in plasma, epithelial lining fluid (ELF) and alveolar macrophages (AM) after 800 mg once daily for three days; assay type: in vivo, human; conditions: for Kp / Kp at 3 h / Kp at 6 h / Kp at 9 h / Kp at 12 h / Kp at 24 h / Kp at 48 h: both sexes, human; for Kp: oral, range over the 48-hour period after drug administration, 800 mg once daily for 3 days; for Kp at 3 h / Kp at 6 h / Kp at 9 h / Kp at 12 h / Kp at 24 h / Kp at 48 h: healthy subjects, 800 mg oral once daily for 3 days, mean ± SD; for Kp at 3 h: sampling time 3 hr after third dose; for Kp at 6 h: sampling time 6 hr after third dose; for Kp at 9 h: sampling time 9 hr after third dose; for Kp at 12 h: sampling time 12 hr after third dose; for Kp at 24 h: sampling time 24 hr after third dose; for Kp at 48 h: sampling time 48 hr after third dose
Procedure: Healthy male and female subjects 18 years of age or older who met the study entry criteria were enrolled into the pharmacokinetic study. Each subject received 800 mg (2 tablets of 400 mg) of compound of Formula (I) administered once daily for three days, with 240 ml of drinking water at a consistent time within two hours after a standard meal and direct observation at the study site. Blood samples were collected to measure concentration of compound of Formula (I) in plasma at 3, 6, 9, 12, 24, and 48 hours following the third dose of compound of Formula (I). Similarly, bronchoscopy was done to measure concentration of compound of Formula (I) in epithelial lining fluid (ELF) and alveolar macrophages (AM) 3, 6, 9, 12, 24, and 48 hours following the third dose of compound of Formula (I). The mean (±SD) concentrations of compound of Formula (I) in plasma (total), ELF, and AM at the bronchopulmonary sampling times are illustrated in FIG. 4. […] Table 1 gives the mean (±SD) ratios of compound of Formula (I) in ELF or AM to the simultaneous total plasma concentrations. The mean ratios of ELF and AM to simultaneous total plasma concentration for compound of Formula (I) during the 48-hour period after drug administration ranged from 10 to 30 and 270 to 800, respectively.

[2] = Study 2: Phase 1 multiple ascending dose, drug concentrations in plasma and polymorphonuclear leukocytes (PMN); assay type: in vivo, human; conditions: healthy subjects, 600, 800 and 1000 mg once daily day 1 to day 7; sampling day 1 and day 7
Procedure: A Phase 1, randomised, double-blind, single center, placebo controlled sequential cohort study in a maximum of 3 cohort of 10 healthy male and/or female subject each was conducted. Subjects received ascending multiple doses of compound of Formula (I) (600, 800 and 1000 mg) or matching placebo once daily on day 1 to day 7. Blood sampling was performed on day 1 and day 7 to determine the drug concentrations in plasma and polymorphonuclear leukocytes (PMN) (FIG. 2 and FIG. 3). […] Blood sampling was also undertaken at intermittent days to determine the number of doses required to attain the steady state.

[3] = alveolar macrophages (AM) / plasma (total), read-out: AM to Plasma (Total) concentration ratio
[4] = epithelial lining fluid (ELF) / plasma (total), read-out: ELF to Plasma (Total) concentration ratio

CC[C@@H]1OC(=O)[C@H](C)C(=O)[C@H](C)[C@@H](OC2O[C@H](C)C[C@H](N(C)C)[C@H]2O)[C@](C)(OC)C[C@@H](C)C(=O)[C@H](C)[C@H]2[C@H](/C(N)=N/O[C@@H](C)c3nnc(-c4ccccn4)s3)C(=O)O[C@@]21C (stereo partly shown) [compound of Formula (I)]
Kp ([1]; alveolar macrophages (AM) / plasma (total), read-out: mean ratio of AM to simultaneous total plasma concentration): 270 to 800 | Kp at 3 h [1, 3]: 274 ± 187 | Kp at 6 h [1, 3]: 378 ± 172 | Kp at 9 h [1, 3]: 383 ± 260 | Kp at 12 h [1, 3]: 791 ± 614 | Kp at 24 h [1, 3]: 486 ± 193 | Kp at 48 h [1, 3]: 428 ± 189 | Kp ([1]; epithelial lining fluid (ELF) / plasma (total), read-out: mean ratio of ELF to simultaneous total plasma concentration): 10 to 30 | Kp at 3 h [1, 4]: 17 ± 12 | Kp at 6 h [1, 4]: 14.5 ± 8.8 | Kp at 9 h [1, 4]: 10.4 ± 6.5 | Kp at 12 h [1, 4]: 12.4 ± 9.3 | Kp at 24 h [1, 4]: 17.6 ± 6.2 | Kp at 48 h [1, 4]: 27.2 ± 6.5 | concentrations in ELF and AM compared with simultaneous plasma concentrations ([1]; oral 800 mg, throughout the 48-hour period after 3 days of once-daily dosing): significantly higher in ELF and AM than simultaneous plasma concentrations | accumulation in polymorphonuclear leukocytes (PMN) in comparison to plasma [2]: accumulated more in polymorphonuclear leukocytes (PMN) in comparison to plasma
